Values after ≈ are worked out from the molar mass of the structure shown. Where two headings read alike, the source gives them in different places.
Assays:
[1] = format: physicochemical
Description: 1. Determination of Inclusion Ratio and Inclusion Constant of Inclusion Complex by Ultraviolet-Visible Spectroscopy
According to a Benesi-Hildebrand method (J. Am. Chem. Soc. 1949, 71, 8, 2703-2707), it was obtained that: at 25° C., the complexation stability constants of HP-β-CD and β-CDP with DPG were 26.87 L/mol and 27.88 L/mol, respectively.

[2] = in water at 25° C.; cited from earlier work
[3] = Thermogravimetric analysis (thermal stability); format: physicochemical
Description: Taking Examples 2 and 4 as examples, the thermal stability of DPG raw materials, HP-β-CD, β-CDP and their respective inclusion complexes were analyzed by thermogravimetric analysis, and the results were shown in FIG. 4.

[4] = Solubilization experiment by ultraviolet-visible spectra (244 nm); conditions: water, thermodynamic from solid
Source text: Taking Examples 2 and 4 as examples, the solubilization effect was verified by comparing and analyzing absorption peaks of ultraviolet-visible spectra of the DPG raw material, the DPG-β-CDP inclusion complex, and the DPG-HP-β-CD inclusion complex. The results were shown in FIG. 5, β-CDP and HP-β-CD had no ultraviolet absorption peaks.

| Compound | complexation stability constant with DPG [1] | solubility [2] | second decomposition (temperature) [3] | began to decompose (temperature) ([3]; first decomposition) | solubility [4] |
| --- | --- | --- | --- | --- | --- |
| hydroxypropyl-ß-cyclodextrin [HP-β-CD] | 26.87 L/mol | – | – | – | – |
| β-cyclodextrin polymer [β-CDP] | 27.88 L/mol | – | – | – | – |
| N=C(Nc1ccccc1)Nc1ccccc1 [DPG, 1,3-diphenylguanidine] | – | about 315 mg/L | 256 °C | 166 °C | 315 µg/mL (≈ 1490 µM) |
